The record followed here is patent US20240246918A1, “COMPOUNDS AND COMPOSITIONS AS EIF4E INHIBITORS AND THE USES THEREOF” (Ribometrix, Inc., priority 2022, published 2024).

For assay [1], the system named is COLO 205 colorectal tumor cells. Nature of the assay: Tumor cell viability inhibition assay (CellTiter-Glo 2.0, 72 hours). The format is cell-based. To be noted: COLO 205 cell viability. The procedure, abridged:
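IC50 derived by 4-parameter fitting after normalizing luminescence to DMSO and max-inhibition wells. Compounds tested as 11 concentrations in 4-fold steps on COLO 205 cells seeded at 1500 per well in RPMI-1640/10% FBS; ATP content measured with CellTiter-Glo 2.0 after 72 h.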

In assay [2] the test system is cap-dependent translation in Flp-In-293 reporter cells. The assay is described as follows: Cellular cap-dependent translation inhibition assay (dual luciferase assay, DLA; Fluc/Rluc ratio, 24 hours). The format is cell-based. The following applies: dual luciferase assay, Flp-In-293 reporter cells, 24 hours, Fluc/Rluc ratio, read-out: DLA 205 IC50.
The target of the next assay is T1, human eIF4E protein (Homo sapiens, UniProt P06730).
T1 construct: purchased Novus NBP-45314
The assay is described as follows: Biochemical competitive binding assay (TR-FRET competition, EDA-m7GDP-ATTO-647N probe). To be noted: read-out: hEIF4E TR-FRET IC50. The gist of the method:
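IC50 values come from 4-parameter fits of the normalized 665/620 nm TR-FRET ratio. Compound was first incubated 15 min with 4 nM recombinant His-eIF4E bound to 2.5 nM Eu-anti-His antibody, then 15 min with 5 nM m7GDP-ATTO-647N tracer, in pH 7.5 HEPES buffer with 100 mM KCl, Tween-20 and BSA.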

Each structure is given as a SMILES string. Read-outs that look alike come from different tables or passages of the source.

T1 sequence (P06730 whole entry): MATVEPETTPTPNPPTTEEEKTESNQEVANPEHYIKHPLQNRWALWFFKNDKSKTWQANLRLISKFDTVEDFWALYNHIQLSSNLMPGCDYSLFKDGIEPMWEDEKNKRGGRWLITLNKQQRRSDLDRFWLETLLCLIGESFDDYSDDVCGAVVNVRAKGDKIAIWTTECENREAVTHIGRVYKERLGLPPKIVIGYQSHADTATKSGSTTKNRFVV

Take `Cc1cc(-c2cc(Cl)ccc2OCCn2c(C)nc3c(c2=O)CC(N(C2CC2)C2CC2)CC3)c2scc(C(=O)O)c2n1` (stereo not drawn) [Compound 352]: the concentration for half-maximal inhibition (IC50) is less than 5000 nM in assay [1] (Homo sapiens, COLO 205, 72 h); less than 1000 nM in assay [2] (Homo sapiens, Flp-In-293, 24 h); less than 100 nM at human eIF4E protein.
On the same counts, the results for `Cc1cc(-c2cc(Cl)ccc2OCCn2c(C)nc3c(c2=O)CC(N(C)C2CC(F)(F)C2)CC3)c2scc(C(=O)NS(C)(=O)=O)c2n1` (stereo not drawn) [Compound 63] are less than 5000 nM, less than 1000 nM and less than 100 nM.
As for `Cc1cc(-c2cc(Cl)ccc2OCCn2c(C)nc3c(c2=O)CC(N(C)C2CCOCC2)CC3)c2scc(C(=O)O)c2n1` (stereo not drawn) [Compound 77], the IC50 in assay [1] (Homo sapiens, COLO 205, 72 h) was 5000 to 20000 nM; in assay [2] (Homo sapiens, Flp-In-293, 24 h), less than 1000 nM; at human eIF4E protein it was less than 100 nM.
`Cc1cc(-c2cc(Cl)ccc2OCCn2c(C)nc3c(c2=O)CC(N(C)C2CN(CC(F)(F)F)C2)CC3)c2scc(C(=O)O)c2n1` (stereo not drawn) [Compound 64, 7-[5-chloranyl-2-[2-[2-methyl-6-[methyl-[1-[2,2,2-tris(fluorenyl)ethyl]azetidin-3-yl]amino]-4-oxidanylidene-5,6,7,8-tetrahydroquinazolin-3-yl]ethoxy]phenyl]-5-methyl-thieno[3,2-b]pyridine-3-carboxylic acid; 2,2,2-tris(fluorenyl)acetic acid]: the IC50 in assay [1] (Homo sapiens, COLO 205, 72 h) was less than 5000 nM; in assay [2] (Homo sapiens, Flp-In-293, 24 h), less than 1000 nM; at human eIF4E protein, less than 100 nM.
Consider `Cc1nc2c(c(=O)n1CC#Cc1ccc(Cl)cc1-c1ccnc3c(C(=O)NS(C)(=O)=O)csc13)CC(N(C)Cc1ccncc1)CC2` (single isomer, unassigned) [Compound 314], for which the IC50 in assay [1] is 5000 to 20000 nM; in assay [2], 1000 to 5000 nM; at human eIF4E protein it was less than 100 nM.
Consider `Cc1cc(-c2cc(Cl)ccc2OCCn2c(C)nc3c(c2=O)CC(N(C)C2(c4ccc(F)cc4)CC2)CC3)c2scc(C(=O)NS(C)(=O)=O)c2n1` (stereo not drawn) [Compound 274], for which the IC50 lay within 5000 to 20000 nM in assay [1] (Homo sapiens, COLO 205, 72 h); 1000 to 5000 nM in assay [2] (Homo sapiens, Flp-In-293, 24 h); 100 to 500 nM at human eIF4E protein.
Turning to `Cc1cc(-c2cc(Cl)ccc2OCCn2c(C)nc3c(c2=O)CC(N(C)C2CC(F)(F)C2)CC3)c2scc(C(=O)O)c2n1` (stereo not drawn) [Compound 40, 7-[2-[2-[6-[[3,3-bis(fluorenyl)cyclobutyl]-methyl-amino]-2-methyl-4-oxidanylidene-5,6,7,8-tetrahydroquinazolin-3-yl]ethoxy]-5-chloranyl-phenyl]-5-methyl-thieno[3,2-b]pyridine-3-carboxylic acid; 2,2,2-tris(fluorenyl)acetic acid], the IC50 in assay [1] (Homo sapiens, COLO 205, 72 h) is less than 5000 nM; in assay [2] (Homo sapiens, Flp-In-293, 24 h) it was less than 1000 nM; at human eIF4E protein it was less than 100 nM.
As to `Cc1cc(-c2cc(Cl)ccc2OCCn2c(C)nc3c(c2=O)CC(OC2CCN(C)CC2)CC3)c2scc(C(=O)O)c2n1` (stereo not drawn) [Compound 92], the IC50 was more than 20000 nM in assay [1] (Homo sapiens, COLO 205, 72 h); more than 5000 nM in assay [2] (Homo sapiens, Flp-In-293, 24 h); 100 to 500 nM on human eIF4E protein.
For `Cc1nc2c(c(=O)n1CC#Cc1ccc(Cl)cc1-c1ccnc3c(C(=O)O)csc13)CC(N(C)C)CC2` (single isomer, unassigned) [Compound 297], the IC50 is more than 20000 nM in assay [1], more than 5000 nM in assay [2] and 500 to 5000 nM on human eIF4E protein.
For `Cc1cc(-c2cc(Cl)ccc2OCCn2c(C)nc3c(c2=O)CC(N(C2CCC2)C2CC2)CC3)c2scc(C(=O)NS(C)(=O)=O)c2n1` (stereo not drawn) [Compound 317], the 50% inhibitory concentration (IC50) in assay [1] (Homo sapiens, COLO 205, 72 h) was less than 5000 nM; in assay [2] (Homo sapiens, Flp-In-293, 24 h), less than 1000 nM; at human eIF4E protein, less than 100 nM.
For `Cc1nc2c(c(=O)n1CC#Cc1ccc(Cl)cc1-c1ccnc3c(C(=O)NS(C)(=O)=O)csc13)CC(N(C)C1CC(F)(F)C1)CC2` (single isomer, unassigned) [Compound 333], in that order: less than 5000 nM, less than 1000 nM and less than 100 nM.
For `Cc1cc(-c2cc(Cl)ccc2OCCn2c(C)nc3c(c2=O)C[C@H](N2CC[C@H](F)C2)CC3)c2scc(C(=O)O)c2n1` (single isomer, unassigned) [Compound 311], in that order: less than 5000 nM, less than 1000 nM and less than 100 nM.
As to `Cc1cc(-c2cc(Cl)ccc2OCCn2c(C)nc3c(c2=O)CC(N(C)C2CCCCC2)CC3)c2scc(C(=O)O)c2n1` (stereo not drawn) [Compound 69], the half-maximal inhibitory concentration (IC50) in assay [1] (Homo sapiens, COLO 205, 72 h) was less than 5000 nM; in assay [2] (Homo sapiens, Flp-In-293, 24 h) it was less than 1000 nM; at human eIF4E protein, less than 100 nM.
Consider `Cc1cc(-c2cc(Cl)ccc2OCCn2c(C)nc3c(c2=O)CC(N(C)CC2(C)COC2)CC3)c2scc(C(=O)NS(C)(=O)=O)c2n1` (single isomer, unassigned) [Compound 305], for which the values for the IC50 (in assay [1]; in assay [2]; on human eIF4E protein) were less than 5000 nM, less than 1000 nM and less than 100 nM, respectively.
For `Cc1nc2c(c(=O)n1CC#Cc1ccc(Cl)cc1-c1ccnc3c(C(=O)NS(C)(=O)=O)csc13)CC(N1CCCCC1)CC2` (single isomer, unassigned) [Compound 315], the IC50 in assay [1] (Homo sapiens, COLO 205, 72 h) was less than 5000 nM; in assay [2] (Homo sapiens, Flp-In-293, 24 h), less than 1000 nM; on human eIF4E protein it was less than 100 nM.
With `Cc1cc(-c2cc(Cl)ccc2OCCn2c(C)nc3c(c2=O)CC(N(C)C2CC2)CC3)c2scc(C(=O)NS(=O)(=O)c3ccccn3)c2n1` (single isomer, unassigned) [Compound 287], the 50% inhibitory concentration (IC50) in assay [1] was 5000 to 20000 nM; in assay [2], 1000 to 5000 nM; on human eIF4E protein, less than 100 nM.
With `Cc1cc(-c2cc(Cl)ccc2OCCn2c(C)nc3c(c2=O)C[C@@H](N2CC[C@@H](F)C2)CC3)c2scc(C(=O)O)c2n1` (single isomer, unassigned) [Compound 329], the half-inhibitory concentration (IC50) in assay [1] (Homo sapiens, COLO 205, 72 h) is less than 5000 nM; in assay [2] (Homo sapiens, Flp-In-293, 24 h), less than 1000 nM; at human eIF4E protein, less than 100 nM.
For `Cc1cc(-c2cc(Cl)ccc2OCCn2c(C)nc3c(c2=O)CC(N(C)CC2CCNCC2)CC3)c2scc(C(=O)NS(C)(=O)=O)c2n1` (single isomer, unassigned) [Compound 289], in that order: 5000 to 20000 nM, 1000 to 5000 nM and less than 100 nM.
On to `Cc1cc(-c2cc(Cl)ccc2OCCn2c(C)nc3c(c2=O)CC(N(C)C2CC2)CC3)c2c(n1)c(C(=O)NS(C)(=O)=O)cn2C` (stereo not drawn) [Compound 272], for which the half-maximal inhibitory concentration (IC50) in assay [1] (Homo sapiens, COLO 205, 72 h) was more than 20000 nM; in assay [2] (Homo sapiens, Flp-In-293, 24 h) it was more than 5000 nM; on human eIF4E protein, 500 to 5000 nM.
On to `Cc1cc(-c2cc(Cl)ccc2OCCn2c(C)nc3c(c2=O)CC(N2CCC(F)(F)C2)CC3)c2scc(C(=O)O)c2n1` (stereo not drawn) [Compound 53], for which the concentration for half-maximal inhibition (IC50) in assay [1] (Homo sapiens, COLO 205, 72 h) was less than 5000 nM; in assay [2] (Homo sapiens, Flp-In-293, 24 h) it was less than 1000 nM; on human eIF4E protein it was less than 100 nM.
Take `Cc1cc(-c2cc(Cl)ccc2OCCn2c(C)nc3c(c2=O)CC(N2CC(F)(F)C4(CC4)C2)CC3)c2scc(C(=O)O)c2n1` (stereo not drawn) [Compound 279]: the IC50 in assay [1] (Homo sapiens, COLO 205, 72 h) was less than 5000 nM; in assay [2] (Homo sapiens, Flp-In-293, 24 h) it was less than 1000 nM; on human eIF4E protein, less than 100 nM.
On the same counts, the results for `Cc1cc(-c2cc(Cl)ccc2OCCn2c(C)nc3c(c2=O)CC(N(C)Cc2ccncc2F)CC3)c2scc(C(=O)O)c2n1` (stereo not drawn) [Compound 57] are less than 5000 nM, less than 1000 nM and less than 100 nM.
Take `Cc1nc2c(c(=O)n1CC#Cc1ccc(Cl)cc1-c1ccnc3c(C(=O)NS(C)(=O)=O)csc13)CC(N(C)C1CC(F)(F)C1)CC2` (single isomer, unassigned) [Compound 334]: the concentration for half-maximal inhibition (IC50) in assay [1] is less than 5000 nM; in assay [2] it was less than 1000 nM; at human eIF4E protein, less than 100 nM.
As to `Cc1cc(-c2cc(Cl)ccc2OCCn2c(C)nc3c(c2=O)C[C@H](N2CCC[C@@H](F)C2)CC3)c2scc(C(=O)O)c2n1` (single isomer, unassigned) [Compound 323], the IC50 is less than 5000 nM in assay [1] (Homo sapiens, COLO 205, 72 h); less than 1000 nM in assay [2] (Homo sapiens, Flp-In-293, 24 h); less than 100 nM at human eIF4E protein.
